According to ChEMBL document CHEMBL3886502, “Pyrrolinone carboxamide compounds useful as endothelial lipase inhibitors” (2016):

Target: T1, Endothelial lipase (Homo sapiens, UniProt Q9Y5X9)
T1 sequence (Q9Y5X9 whole entry): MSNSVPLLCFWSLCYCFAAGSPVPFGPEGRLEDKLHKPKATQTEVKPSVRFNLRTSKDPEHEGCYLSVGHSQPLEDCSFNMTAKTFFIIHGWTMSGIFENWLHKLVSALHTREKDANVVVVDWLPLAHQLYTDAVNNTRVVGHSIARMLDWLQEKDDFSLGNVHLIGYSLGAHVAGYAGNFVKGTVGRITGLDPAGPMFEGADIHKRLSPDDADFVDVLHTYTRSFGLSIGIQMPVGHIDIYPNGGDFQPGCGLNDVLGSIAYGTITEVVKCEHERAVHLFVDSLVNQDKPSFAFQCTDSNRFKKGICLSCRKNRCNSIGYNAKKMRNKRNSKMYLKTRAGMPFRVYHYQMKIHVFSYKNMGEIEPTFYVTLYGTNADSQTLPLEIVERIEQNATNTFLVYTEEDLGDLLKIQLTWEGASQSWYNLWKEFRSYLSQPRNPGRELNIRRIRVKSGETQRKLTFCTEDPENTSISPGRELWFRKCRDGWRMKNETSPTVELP
Assay: Enzyme Assay: The enzymatic assay was measured using white, opaque 96-well half area plates. Each well contained 60 uL of assay buffer (50 mM HEPES pH 8.0, 50 mM NaCl and 1 mM CaCl2) and 2 ul of a DMSO solution containing compound of interest. Conditioned media obtained from HT-1080 cells, which were transformed by RAGE technology (Athersys) to overexpress endogenous EL, was added and the reaction was allowed to incubate for 20 min at 37° C. with gentle agitation. The reaction was started by the addition of 20 uL of a 1:4 dilution of vesicles. The final total reaction volume was 100 uL. The reaction rates were measured on a Gemini plate reader with an excitation wavelength of 488 nm and a emission of 530 nm. Readings were taken every 20 seconds for 10 min with agitation between each reading.
Assay type: cell-based

IC50	SMILES
436 nM	CN1CC(C(=O)NCCCc2ccccc2C(F)(F)F)=C(O)C1=O
488 nM	O=C(NCCCc1ccc(Cl)c(Cl)c1)C1=C(O)C(=O)N(Cc2ccccc2C(=O)O)C1
486 nM	CC1C(C(=O)NCCCc2ccc(Cl)c(Cl)c2)=C(O)C(=O)N1CCc1ccc(F)cc1 (stereo not drawn)
